“Also recorded” adds a separate entry of the source.
Experiments:
pPLS::GUS = pPLS::GUS expression in root tips after hormone treatment; type: in vivo, Arabidopsis; details: 10 μM 2,4-D, root tips
Description: Figure S15. The link between auxi n and et hyl ene si gnal l i ng ef f ect s on PLS transcription, and downstream ef f ect s on et hyl ene responses.
(A) Ant agoni sm between auxi n and et hyl ene on PLS expressi on.
Auxin posit ively regulates PLS gene transcription, whi l e ACC (ethylene pr ecur sor ) […]
Lef t upper panel: pPLS::GUS […]
expr ession in the Arabidopsis root tip under standard gr owt h conditions. Lef t lower panel: pPLS::PLS:GFP expr ession in the Arabidopsis root tip under standard gr owt h conditions.
Ri ght panel: pPLS::GUS expr ession in root tips treated wi t h 10 μM 2,4-D, showing ect opic […]
10 μM 2,4-D plus 10 μm ACC, showing the ant agonism of the inductive eff ect of 2,4-D on PLS::GUS expr ession. Images ar e representative of 10 independently gr own roots. […]

[1] = test system: Arabidopsis pls mutant seedlings (primary root length); test: Hydroponic peptide feeding: rescue of short primary root of pls mutant; type: in vivo, Arabidopsis thaliana; details: for rescue of root growth of pls seedlings: 50 nM peptide, n = 25 (Figure 2C)
Protocol: (A) Amino acid sequence of the PLS peptide from Arabidopsis thaliana with the Camelina sativa PLS sequence and the synthetic truncations N1, N2, C1, and C2 indicated by horizontal lines. Two cysteine residues are highlighted in bold. (B) Effect of the synthetic Arabidopsis PLS full-length peptide, A. thaliana PLS(FL), and the Camelina PLS peptide (C. sativa PLS) on Arabidopsis primary root length. Wild-type (C24; blue bars) and pls mutant seedlings (orange bars) were grown hydroponically in the presence (100 nM) or absence of peptide for 10 days. ∗∗∗P < 0.05, t-test between C24 and pls. Error bars show ±1 standard error of the mean, n = 20. (C) Effect of synthetic full-length and truncated peptides on primary root length of wild-type (blue bars) and pls mutant (orange bars) Arabidopsis. Seedlings were grown hydroponically in the presence of 50 nM peptide for 10 days. C1, C-terminal 14 amino acids; C2, C-terminal 24 amino acids; N1, N-terminal 22 amino acids; N2, N-terminal 9 amino acids; full-length PLS, 36 amino acids. Error bars show ±1 standard error of the mean, n = 25. ∗∗∗P < 0.05, t-test between C24 and pls.
proPLS::PLS:GFP comprises a 1.5-kb PLS promoter sequence ([Casson et al., 2002]) fused to the PLS open reading frame in pMDC107 (obtained from Prof. P.J. Hussey, Durham University) as a C-terminal GFP translational fusion. The PLS ORF with its 1.5-kb promoter was amplified from the TOPO 2.1 vector, which contained the PLS gene sequence with promoter ([Casson et al., 2002]); the primers used for cloning are listed in supplemental Table 9. pls mutant plants were transformed using the method of [Clough and Bent (1998)]. proPLS::GFP plants were generated using the 1.5-kb PLS promoter ([Casson et al., 2002]) fused to GFP in a wild-type background. p35S::GFP seedlings were obtained from Dr. Piers Hemsley, Durham University. Seedlings of Arabidopsis thaliana ecotype C24 or Col-0, pls mutants, and transgenic PLS overexpressers, all from lab stocks, were grown on solid sterile half-strength (2.2 g/l) Murashige and Skoog medium (Sigma-Aldrich) containing 10 g/l sucrose (half-strength [½] MS10 medium) solidified with 2.5 g/l Phytagel (Sigma-Aldrich) in 90-mm Petri dishes (Sarstedt, Leicester, UK) at 21°C under a 16-h photoperiod as described previously ([Casson et al., 2002]; [Chilley et al., 2006]). N. benthamiana plants (lab stocks) were grown in a controlled environment (21°C, 16-h photoperiod) for transient expression studies in leaf tissue. For hydroponic feeding studies, Arabidopsis seedlings were cultured in liquid ½ MS10 medium (1 ml/well) in sterile 24-well plates (Sarstedt), essentially as described in [Matsuzaki et al. (2010]). For hormone and peptide assays, one seedling was grown in each well at 21°C under a 16-h photoperiod. For peptide feeding experiments, purified freeze-dried peptide was dissolved in DMSO to create a 500-μM stock solution. The peptide stock solution was added to liquid ½ MS10 medium containing 0.1% DMSO to obtain a final peptide concentration of 50 or 100 nM (or 10, 25, 50, and 100 nM for dose-dependent assays). For copper treatments, 1 mM CuSO4 solution was filter sterilized and added to autoclaved liquid ½ MS10 medium to obtain final CuSO4 concentrations of 0, 5, 10, 15, 20, 25, 30, 35, 40, 45, and 50 μM. Seedlings were scanned to create a digital image, and root lengths of the seedlings were measured using ImageJ. Statistical analysis was performed using Real Statistics Resource Pack software (release 3.8, www.real-statistics.com) in Excel (Microsoft) using data from at least 10 independently grown seedlings for root growth analysis; specific numbers are defined for each experiment.

[2] = Anaerobic Cu(I) titration in competition with bicinchoninic acid (BCA); type: binding; details: synthetic peptide; mutant 40 μM, BCA 93.3 μM, mean ± SD, n = 3 (supplemental Figure 10)
Protocol: Freeze-dried synthetic PLS peptide (Cambridge Research Biochemicals) was dissolved in DMSO. An aliquot was added to aqueous buffer (10 mM HEPES [pH 7], 20 mM NaCl, 80 mM KCl), and absorbance was recorded at 280 nm. PLS concentration was estimated from the absorbance and the ProtParam estimated extinction coefficient of 2980 M^−1 cm^−1. Concurrently, a sample was submitted for quantitative amino acid analysis (Abingdon Health Laboratory Services). From this analysis, a conversion factor of 2.27 was generated, which was applied to the concentrations determined by A280 nm.
A fusion of PLS to MBP was created using the NEBExpress MBP Fusion and Purification System. Two complementary oligonucleotide primers encoding PLS (optimized for expression in E. coli) were annealed and inserted into the pMal-c5x plasmid at the XmnI and SalI insertion sites. The three mutants MBP:PLS(C6S), MBP:PLS(C17S), and MBP:PLS(C6S/C17S) were created by site-directed mutagenesis (QuikChange II, Agilent). E. coli NEB Express containing the pMal plasmid with the correct MBP:PLS mutant was used to overexpress each protein. Harvested cells were resuspended in 20 mM Tris–HCl (pH 7.4), 200 mM NaCl, and 1 mM EDTA, then frozen at −20°C overnight. Cells were defrosted in cold H2O, sonicated, purified by ammonium sulfate precipitation (where MBP-PLS precipitates >60% saturation), separated on an MBP-Trap column (GE Healthcare), and eluted using buffer containing 10 mM maltose. MBP:PLS-containing fractions were pooled and concentrated using a centrifugal concentrator (Corning, Spin-X UF 30 kDa) and buffer exchanged by desalting column into a metal-free buffer of 20 mM HEPES (pH 7.0) and 50 mM NaCl in an anaerobic chamber (Belle Technology). Mutants containing thiols were quantified using Ellman’s assay, and MBP:PLS(C6S/C17S), which lacks all thiols, was quantified using the Bradford assay alone. Samples were also analyzed for metal content by ICP–MS to ensure >95% apo-protein.
All Cu(I) titration experiments were carried out in an anaerobic chamber (Belle Technology) using metal-free CHELEX-treated, degassed buffers. For titration experiments with Cu(I), aqueous CuSO4 stock was quantified in advance by ICP–MS and diluted to working concentrations. The reductant NH2OH was included at a final concentration of 1 mM to maintain Cu(I) in its reduced state. Proteins were diluted in buffer to the final concentration specified in each titration in air-tight quartz cuvettes (Helma), and after addition of probe to the concentration specified, titrated with CuSO4. After each addition, solutions were thoroughly mixed and absorbance spectra recorded using a Lambda 35 UV/Vis spectrophotometer (PerkinElmer). Titration isotherm data were fitted using simulated affinity curves with DynaFit ([Kuzmič, 2009]).

pls mutant = details: cited from earlier work
Description: Transgenic complementation of the mutant by the PLS gene (AT4G39403), which encodes a 36-amino-acid peptide, suppresses the mutant phenotype ([ ... || The pls mutant is rescued by the supply of silver ions ([Casson et al., 2002]), and silver is likely delivered to the ethylene receptor via RAN1 ([Binder et al., 2010]); these findings argue against a mechanism in which PLS acts downstream of RAN1 to metalate ETR1 in the ER lumen. It is also unlikely that PLS removes Cu(I) from the receptor, as this would inactivate the receptor and lead to enhanced ethylene signaling in the presence of PLS, which is the opposite of what would be expected from the pls mutant phenotype. We therefore favor a model (Figure 6) in which PLS binds ETR1 as part of th ...

[3] = target: T1, full-length ETR1, recombinant, purified and fluorescently labeled (Arabidopsis, UniProt P49333 1-738, fluorescent label (dye and site not stated)); test: MST
T1 chain: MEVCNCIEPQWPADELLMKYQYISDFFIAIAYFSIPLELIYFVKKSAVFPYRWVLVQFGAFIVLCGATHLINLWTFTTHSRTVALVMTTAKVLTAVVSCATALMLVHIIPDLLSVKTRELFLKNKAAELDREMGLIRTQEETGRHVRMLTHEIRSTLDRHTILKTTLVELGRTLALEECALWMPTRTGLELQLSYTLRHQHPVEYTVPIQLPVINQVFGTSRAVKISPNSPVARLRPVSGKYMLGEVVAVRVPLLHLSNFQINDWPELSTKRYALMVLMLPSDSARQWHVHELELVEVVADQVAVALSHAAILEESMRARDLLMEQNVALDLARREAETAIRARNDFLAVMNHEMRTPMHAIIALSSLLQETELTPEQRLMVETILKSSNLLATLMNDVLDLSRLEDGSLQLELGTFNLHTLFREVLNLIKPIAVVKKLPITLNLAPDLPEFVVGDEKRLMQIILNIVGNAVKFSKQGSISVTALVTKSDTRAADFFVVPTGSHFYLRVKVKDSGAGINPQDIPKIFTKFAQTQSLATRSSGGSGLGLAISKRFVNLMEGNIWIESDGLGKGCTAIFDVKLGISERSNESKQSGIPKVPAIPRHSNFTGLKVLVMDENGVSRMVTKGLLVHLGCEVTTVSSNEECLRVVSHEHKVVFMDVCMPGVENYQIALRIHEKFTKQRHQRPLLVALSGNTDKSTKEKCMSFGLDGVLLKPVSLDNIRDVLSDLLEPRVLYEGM

## O=C(O)COc1ccc(Cl)cc1Cl [2,4-D]
pPLS::GUS
  pPLS::GUS expression: throughout the root

## C1: C-terminal 14 amino acids of Arabidopsis PLS (YLLVAKLFKLFKIH; UniProt Q8LLV8 23-36, looked up, fragment)
[1]; hydroponic, 10 days
  rescue of root growth of pls seedlings: unable to rescue the mutant

## C2: C-terminal 24 amino acids of Arabidopsis PLS (SISPCYISISYLLVAKLFKLFKIH; UniProt Q8LLV8 13-36, looked up, fragment)
[1]; hydroponic, 10 days
  rescue of root growth of pls seedlings: unable to rescue the mutant

## N1: N-terminal 22 amino acids of Arabidopsis PLS (MKPRLCFNFRRRSISPCYISIS; UniProt Q8LLV8 1-22, looked up, fragment)
[1]; hydroponic, 10 days
  rescue of root growth of pls seedlings: rescued root growth
[1]; 50 nM, n = 25
  difference in rescue effects of PLS(FL) and PLS(N1), t-test P: > 0.1
[1]; 50 nM, n = 25, t-test
  difference in rescue effects of PLS(FL) and PLS(N1): did not differ significantly
[1]; hydroponic, 10 days, 100 nM (Figure 2B) or 50 nM (Figure 2C)
  rescue of short primary root length of pls mutant: able to rescue the short primary root length

## N2: N-terminal 9 amino acids of Arabidopsis PLS (MKPRLCFNF; UniProt Q8LLV8 1-9, looked up, fragment)
[1]; hydroponic, 10 days
  rescue of root growth of pls seedlings: unable to rescue the mutant

## PLS(FL C6S, C17S): mutated Arabidopsis full-length peptide in which both cysteines were replaced with serines (MKPRLSFNFRRRSISPSYISISYLLVAKLFKLFKIH; full-length; UniProt Q8LLV8 1-36, looked up, variant C6S C17S)
[2]
  withholding of Cu(I) from BCA: does not
[1]; 100 nM, hydroponic, 10 days (Figure 5A)
  rescue of pls mutant by double-Cys mutant peptide: non-functional; also recorded: failing to rescue the short primary root phenotype of the pls mutant

## silver ions
Pls mutant; pharmacological inhibition of ethylene signaling, ref Chilley et al., 2006
  rescue of pls mutant phenotype: rescued
Pls mutant; supply of silver ions, ref Casson et al., 2002
  rescue of pls mutant: rescued

## MKPRLCFNFRRRSISPCYISISYLLVAKLFKLFKIH [synthetic full-length POLARIS (PLS) peptide, PLS(FL)]
[3]
  Kd: 1900 nM

— paper PMC12744750 (Plant Communications, 2025)
